From US6949522B2, “β-2′- or 3′-halonucleosides” (Pharmasset, Inc., priority 2001, dated 2005) come the findings set out here.

SMILES strings stand for the structures.

One series deals with rRNA gene. In kind it is cell-based, human. To be noted: HepG2, 10 μM, 7 days. The protocol: Low passage number HepG2 cells, obtained from American Tissue Culture Collection (ATCC, Manassas, Va.) were seeded at 5,000 cells/well in collagen-coated 96-well plates. Test compounds were added to the media to obtain a final concentration of 10 μM. On culture day 7, cellular nucleic acids were prepared by using commercially available columns (RNeasy 96 kit, Qiagen).
The rRNA gene primers and probes were purchased from Applied Biosystems. […] The comparative Ct method uses arithmetic formulas in which the amount of target (COXII gene) is normalized to an endogenous reference (β-actin gene or rRNA gene) and is relative to a calibrator (no drug control at day 7). The arithmetic formula for this approach is given by 2-ΔΔCt (User bulletin # 2, Applied Biosystems).
In order to study the consequences of possible inhibitory effects of these compounds on host DNA polymerases, nuclear and rnitochondrial DNA levels were quantified and compared to no-treatment controls. Cells were incubated for 7 days with 10 μM of each compound, followed by total nucleic acid extractions and multiplex Q-PCR of the rRNA gene and the mitochondrial COXII gene. Nucleic acids from cells exposed to the control compounds were also amplified in multiplex for mitDNA and the β-actin gene.

A further series relates to HIV-1 xxBRU (wild type). The experiment in a line: HIV-1 RT-assay on supernatant of acutely infected human PBM cells, strain xxBRU. Type of series: cell-based. To be noted: 5 days, RT activity reduced by 90%. The protocol: (§1) Human PBM cells (1×10^6 cells/T25 flask) were PHA stimulated for 2 or 3 days, and infected with either a wild type (LAI and xxBRU) or a 3TC-resistant (xxBRU 184V) HIV-1 strain at 100 TCID50, as previously described (27). The culture was kept for 5 days in presence of test compounds at serial 1-log dilutions. Subsequently, human PBM cells were removed from the culture supernatant by centrifugation (10 minutes, 400×g, 4° C.). This clarified supernatant was tested either in the RT-assay, or in the Q-RT-PCR assay.
(§2) Virus particles present in a 1 mL aliquot of culture supernatant were concentrated by high-speed centrifugation (2 hours, 20,000×g, 4° C.). The supernatant was then removed and the virus pellet was dispensed into a 100 μL virus solubilization buffer (VSB: 0.5% Triton X-100; 0.8 M NaCl, 0.5 mM phenylmethylsulfonyl, 20% glycerol, 50 mM Tris.HCl pH 7.8). A 10 μL aliquot of RT-VSB was mixed with 75 μL RT cocktail (60 mM Tris.HCl pH 7.8, 12 mM MgCl2, 6 mM DTT, 6 μg/mL poly (rA)n-oligo (dT)10-12, 1.2 mM dATP, and 80 μCi/mL 3H-TTP) and incubated for 2 hours at 37° C. Subsequently 100 μL of 10% TCA was added, and the total amount of incorporated 3H-TTP was determined.
(§3) HIV-1 present in culture supernatant fluids was quantified by two different methodologies: i) the Q-RT-PCR with read-out in log copies/mL; and ii) the endogenous viral RT assay on cell supernatant with read-out in log counts per minute/mL (CPM/mL). Upon addition of antiviral compounds to the culture media, a dose-related decrease in virus production was observed. Although the two methodologies measured different parameters (viral RNA versus active RT enzyme), results were not markedly different from each other. The HIV-1 Q-RT-PCR results were compared with a previously established cell-based antiviral drug evaluation assay (endogenous HIV-1 RT polymerization activity in cell supematant)(27).

The subject of series [1] is 3TC-resistant (xxBRU 184V) HIV-1. The experiment in a line: HIV-1 RT-assay on supernatant of acutely infected human PBM cells, strain xxBRU 184V. In kind it is cell-based. To be noted: for EC90: read-out: RT-Assay 184V EC90. The protocol: as §1, §2, §3
For another series, the system named is HIV-1 LAI (wild type). Kind of series: HIV-1 Q-RT-PCR assay in human PBM cells, strain LAI. Type of series: cell-based. To be noted: 5 days, viral RNA reduced by 90%. The protocol: as §1
(§4) Viral RNA present in the culture supernatant was prepared using commercially available columns (QIAamp Viral RNA mini Kit, Qiagen, Valencia, Calif.). Viral RNA was detected in real-time by monitoring increases in fluorescence signal that resulted from degradation of a quenched fluorescent probe molecule following the hybridization of the probe to the arnplified viral DNA (TaqMan 7700 chemistry, Applied Biosystems, Foster City, Calif.). The TaqMan probe and primers were designed using the Primer Express software (Applied Biosystems); they cover highly conserved sequences complementary to an 81 base pair long fragment from the HIV-1 RT gene between codon 230 and 257 of the group MHIV-1 genome; • probe 5′-6FAM-[…]-TAMRA-3′ (Sequence 1) • sense primer: 5′-[…]-3′ (Sequence 2); and • antisense primer 5′-[…]-3′ (Sequence 3).
(§5) A total of 5 μL RNA was RT-amplified using reagents and conditions as described by the manufacturer (Applied Biosystems). […] Copy numbers were calibrated using the Roche Amplicor HIV-1 Monitor test™ (Roche Diagnostics, Branchburg, N.J.) on a 1-log dilution series of a clinical HIV-1 genotype B isolate (attenuated in vitro to obtain a high viral load). The 10-6 diluted sample became positive at threshold cycle (Ct=PCR cycle threshold where a sample becomes detectable)=35.52, which corresponded to 1,410 copies/mL in the Roche monitor HIV-1 version II assay. When validated over a dynamic range of 3 logs of virus, there was excellent correlation (r2˜1) between the two methodologies. […] Therefore, the currently designed primer and probe set allowed reliable quantification of both clinical samples and HIV-1 in vitro preparations.
as §3

Series [2] deals with 3TC-resistant (xxBRU 184V) HIV-1. Kind of series: HIV-1 Q-RT-PCR assay in human PBM cells, strain xxBRU 184V. Type of series: cell-based. Particulars: for EC90: read-out: Q-RT-PCR HIV-1 assay 184V EC90. As to the method:
as §1, §4, §5, §3

The mark [3] stands for this setting: Human immunodeficiency virus 1, PBMC, 120 h.
The mark [4] stands for this setting: human PBM cells, 5 days, RT activity reduced by 90%.
Where [5] appears, read: human PBM cells, 5 days, viral RNA reduced by 90%.

Regarding `Cc1cn([C@H]2C[C@H](N=[N+]=[N-])[C@@H](CO)O2)c(=O)[nH]c1=O` [AZT, 3′-azido-3′-deoxythymidine, reference compound], in the series on rRNA gene, the “Average ΔCt ± SD rDNA” value was 0.86 ± 0.55. The “Average ΔΔCt ± SD rDNA-β-actin” value in the series with rRNA gene worked out at 0.76 ± 0.87. Moreover, the EC90 with HIV-1 xxBRU (wild type) (setting [3]) worked out at 0.01 µM; in series [1] (setting [3]), 0.002 µM; in the series on HIV-1 LAI (wild type) (setting [3]), 0.03 µM; in series [2] (setting [3]), 0.01 µM.

Take `Nc1ccn([C@@H]2CS[C@H](CO)O2)c(=O)n1` [Compound 3TC, (−)-β-2′,3′-dideoxy-3′-thiacytidine, reference compound]: the “Average ΔCt ± SD rDNA” value in the series with rRNA gene is given as 0.47 ± 0.51. Further, in the series on rRNA gene, the “Average ΔΔCt ± SD rDNA-β-actin” value turned out to be 0.36 ± 0.66. Moreover, the EC90 is 0.08 µM in the series on HIV-1 xxBRU (wild type) (setting [3]), 535 µM in series [1] (setting [3]), 0.37 µM with HIV-1 LAI (wild type) (setting [3]) and > 100 µM in series [2] (setting [3]). For the same compound, the “RT-Assay FI, fold increase (EC90 HIV-1184V/EC90 HIV-1xxBRU)” value (“RT-Assay FI, fold increase” for short) in series [1] was 6,688. The “Q-RT-PCR HIV-1 assay FI, fold increase (EC90 HIV-1184V/EC90 HIV-1xxBRU)” value (shortened to “Q-RT-PCR HIV-1 assay FI, fold increase”) in series [2] is recorded as >1,562.

For the compound `Nc1ccn([C@@H]2C=C(F)[C@H](CO)O2)c(=O)n1` [Compound 10, 1-(2,3-Dideoxy-3-fluoro-β-L-glycero-pent-2-eno-furanosyl)cytosine], in the series with rRNA gene, the “Average ΔCt ± SD rDNA” value is reported as −0.08 ± 0.50. For the same compound, the EC90 with HIV-1 xxBRU (wild type) (setting [3]) was 35.5 µM; in series [1] (setting [3]), 572 µM; in the series with HIV-1 LAI (wild type) (setting [3]) it was 50.6 µM; in series [2] (setting [3]), > 100 µM. The “RT-Assay FI, fold increase” value in series [1] came to 16.1.

Regarding `Nc1ccn([C@@H]2C=C(F)[C@H](CO)O2)c(=O)n1` [Compound 23, 1-(2,3-Didcoxy-3-fluoro-β-L-glycero-pent-2-eno-furanosyl)cytosine], the “Average ΔCt ± SD rDNA” value with rRNA gene is reported as −0.51 ± 0.35. Besides, the concentration for an effect of 90% (EC90) in the series with HIV-1 xxBRU (wild type) came out at 0.14 µM; in series [1] (setting [4]), 82 µM; in the series with HIV-1 LAI (wild type) it was 0.92 µM; in series [2] (setting [5]), 68.4 µM. The “RT-Assay FI, fold increase” value in series [1] turned out to be 586. Further, in series [2], the “Q-RT-PCR HIV-1 assay FI, fold increase” value is 115.

As to `Nc1ccn([C@@H]2S[C@H](CO)C=C2F)c(=O)n1` [Compound D-17, (−)-1-[(1S,4R)-2,3-dideoxy-2,3-didehydro-2-fluoro4-thio-β-D-ribofuranosyl]-cytosine], in the series with rRNA gene, the “Average ΔCt ± SD rDNA” value is 0.81 ± 0.60. Besides, the EC90 with HIV-1 xxBRU (wild type) was 5 µM; in series [1] (setting [4]), 125 µM; with HIV-1 LAI (wild type), 24.6 µM; in series [2] (setting [5]) it was 65.8 µM. Also, the “RT-Assay FI, fold increase” value in series [1] was 25.0. In addition, the “Q-RT-PCR HIV-1 assay FI, fold increase” value in series [2] is reported as 12.8.

For `Nc1nc(=O)n([C@@H]2S[C@H](CO)C=C2F)cc1F` [Compound D-18, (−)-1-[(1S,4R)-2,3-dideoxy-2,3-didehydro-2-fluoro-4-thio-β-D-ribofuranosyl]-5-fluorocytosine], in the series with rRNA gene, the “Average ΔCt ± SD rDNA” value is −0.45 ± 0.60. The EC90 was 119 µM with HIV-1 xxBRU (wild type), > 100 µM in series [1] (setting [4]), > 100 µM in the series with HIV-1 LAI (wild type) and > 100 µM in series [2] (setting [5]).

Regarding `Nc1ccn([C@H]2S[C@@H](CO)C=C2F)c(=O)n1` [Compound L-17, (+)-1-[(1S,4R)-2,3-dideoxy-2,3-didehydro-2-fluoro-4-thio-β-L-ribofuranosyl]-cytosine], the “Average ΔCt ± SD rDNA” value with rRNA gene came to 0.49 ± 0.77. The EC90 in the series with HIV-1 xxBRU (wild type) is 1.4 µM; in series [1] (setting [4]), 1570 µM; in the series on HIV-1 LAI (wild type), 4.1 µM; in series [2] (setting [5]), > 100 µM. The “RT-Assay FI, fold increase” value in series [1] is listed as 1,121. Moreover, the “Q-RT-PCR HIV-1 assay FI, fold increase” value in series [2] is >50.

With `Nc1nc(=O)n([C@H]2S[C@@H](CO)C=C2F)cc1F` [Compound L-18, (+)-1-[(1S,4R)-2,3-dideoxy-2,3-didehydro-2-fluoro-4-thio-β-L-ribofuranosyl]-5-fluoro-cytosine], the “Average ΔCt ± SD rDNA” value with rRNA gene worked out at 0.10 ± 0.44. Further, the EC90 with HIV-1 xxBRU (wild type) was 1.1 µM; in series [1] (setting [4]) it was > 100 µM; in the series on HIV-1 LAI (wild type) it was 4.3 µM; in series [2] (setting [5]) it was > 100 µM. In addition, in series [1], the “RT-Assay FI, fold increase” value is reported as >100. In addition, the “Q-RT-PCR HIV-1 assay FI, fold increase” value in series [2] is reported as >100.

By EC90 is commonly meant the concentration needed for an effect of 90%.
